Assay results taken from ChEMBL document CHEMBL1133795, “Antagonists of the human CCR5 receptor as anti-HIV-1 agents. part 1: discovery and initial structure-activity relationships for 1 -amino-2-phenyl-4-(piperidin-1-yl)butanes” (Bioorg Med Chem Lett, 2001).

target: T1, C-C chemokine receptor type 5 (Homo sapiens, UniProt P51681); test: (§1) Binding affinity towards human CCR5 receptor in Chinese hamster ovary (CHO) cells using [125I]-MIP-1 alpha as radioligand at a concentration of 4000 nM; type: cell-based
Target sequence in this assay (P51681 whole entry): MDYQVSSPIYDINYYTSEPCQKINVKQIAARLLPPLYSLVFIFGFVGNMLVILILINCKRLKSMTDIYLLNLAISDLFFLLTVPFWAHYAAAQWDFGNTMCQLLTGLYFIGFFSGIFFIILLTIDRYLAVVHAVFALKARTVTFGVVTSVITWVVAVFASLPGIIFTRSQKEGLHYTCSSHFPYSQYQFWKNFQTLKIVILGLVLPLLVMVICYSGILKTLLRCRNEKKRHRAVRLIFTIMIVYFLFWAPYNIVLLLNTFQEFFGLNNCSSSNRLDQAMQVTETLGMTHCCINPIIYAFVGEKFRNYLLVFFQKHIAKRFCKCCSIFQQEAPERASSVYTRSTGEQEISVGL

Compound	IC50 [nM]
CN(C[C@@H](CCN1CCC2(CC1)C[S+]([O-])c1ccccc12)c1ccc(Cl)c(Cl)c1)S(=O)(=O)c1ccsc1 (stereo partly drawn)	> 4000

target: T1, C-C chemokine receptor type 5; test: Binding affinity towards human CCR5 receptor in Chinese hamster ovary (CHO) cells using [125I]-MIP-1 alpha as radioligand; type: cell-based
Target sequence in this assay (P51681 whole entry): as above

Compound	IC50 [nM]
CCN(C[C@@H](CCN1CCC2(CC1)CS(=O)(=O)c1ccccc12)c1ccc(Cl)c(Cl)c1)S(=O)(=O)c1ccccc1	160
CN(C[C@@H](CCN1CCC2(CC1)C[S+]([O-])c1ccccc12)c1ccc(Cl)c(Cl)c1)S(=O)(=O)c1ccccc1 (stereo partly drawn)	35
CN(C[C@@H](CCN1CCC2(CC1)CSc1ccccc12)c1ccc(Cl)c(Cl)c1)S(=O)(=O)c1ccccc1	1000
CN(C[C@@H](CCN1CCC2(CC1)C[S+]([O-])c1ccccc12)c1ccc(Cl)c(Cl)c1)S(=O)(=O)c1cccnc1 (stereo partly drawn)	100
CN(C[C@@H](CCN1CCC2(CC1)C[S+]([O-])c1ccccc12)c1ccc(Cl)c(Cl)c1)C(=O)Oc1ccccc1 (stereo partly drawn)	780
CN(C[C@@H](CCN1CCC2(CC1)C[S+]([O-])c1ccccc12)c1ccc(Cl)c(Cl)c1)S(=O)(=O)c1ccc(-c2ccccc2)cc1 (stereo partly drawn)	40
CN(C[C@@H](CCN1CCC2(CC1)C[S+]([O-])c1ccccc12)c1ccc(Cl)c(Cl)c1)C(=O)Cc1ccccc1 (stereo partly drawn)	640
CCCCCCCCS(=O)(=O)N(C)C[C@@H](CCN1CCC2(CC1)C[S+]([O-])c1ccccc12)c1ccc(Cl)c(Cl)c1 (stereo partly drawn)	1400
CN(C[C@@H](CCN1CCC2(CC1)C[S+]([O-])c1ccccc12)c1ccc(Cl)c(Cl)c1)S(=O)(=O)C1CCCC1 (stereo partly drawn)	100
CN(C[C@@H](CCN1CCC2(CC1)C[S+]([O-])c1ccccc12)c1ccc(Cl)c(Cl)c1)S(=O)(=O)Cc1ccccc1 (stereo partly drawn)	590
CN(C[C@@H](CCN1CCC2(CC1)C[S+]([O-])c1ccccc12)c1ccc(Cl)c(Cl)c1)S(=O)(=O)c1cn(C)cn1 (stereo partly drawn)	340
CN(C[C@@H](CCN1CCC2(CC1)C[S+]([O-])c1ccccc12)c1ccc(Cl)c(Cl)c1)S(=O)(=O)C1CCCCC1 (stereo partly drawn)	100
CN(C[C@@H](CCN1CCC2(CC1)C[S+]([O-])c1ccccc12)c1ccc(Cl)c(Cl)c1)S(=O)(=O)c1cccc2cccnc12 (stereo partly drawn)	90
CN(C[C@@H](CCN1CCC2(CC1)C[S+]([O-])c1ccccc12)c1ccc(Cl)c(Cl)c1)S(=O)(=O)c1ccc2ccccc2c1 (stereo partly drawn)	60
CN(C[C@@H](CCN1CCC2(CC1)C[S+]([O-])c1ccccc12)c1ccc(Cl)c(Cl)c1)S(=O)(=O)c1cccs1 (stereo partly drawn)	60
CN(C[C@@H](CCN1CCC2(CC1)C[S+]([O-])c1ccccc12)c1ccc(Cl)c(Cl)c1)S(=O)(=O)c1cccc2ccccc12 (stereo partly drawn)	360
CN(C[C@@H](CCN1CCC2(CC1)CS(=O)(=O)c1ccccc12)c1ccc(Cl)c(Cl)c1)S(=O)(=O)c1ccccc1	100

Compound	IC50 [nM]
COc1ccc(S(=O)(=O)N(C)C[C@@H](CCN2CCC3(CC2)C[S+]([O-])c2ccccc23)c2ccc(Cl)c(Cl)c2)cc1 (stereo partly drawn)	40
CN(C[C@@H](CCN1CCC2(CC1)C[S+]([O-])c1ccccc12)c1ccc(Cl)c(Cl)c1)S(=O)(=O)c1ccc(Cl)cc1 (stereo partly drawn)	40
O=S(=O)(NC[C@@H](CCN1CCC2(CC1)C[S+]([O-])c1ccccc12)c1ccc(Cl)c(Cl)c1)c1ccccc1 (stereo partly drawn)	230
O=S(=O)(NC[C@@H](CCN1CCC2(CC1)CSc1ccccc12)c1ccc(Cl)c(Cl)c1)c1ccccc1	1600
CN(C[C@@H](CCN1CCC2(CC1)CS(=O)(=O)c1ccccc12)c1ccc(Cl)c(Cl)c1)S(=O)(=O)c1cccs1	120
CCN(C[C@@H](CCN1CCC2(CC1)CSc1ccccc12)c1ccc(Cl)c(Cl)c1)S(=O)(=O)c1ccccc1	10000
CN(C[C@@H](CCN1CCC2(CC1)CS(=O)(=O)c1ccccc12)c1ccc(Cl)c(Cl)c1)S(=O)(=O)c1ccc([N+](=O)[O-])cc1	60
CN(C[C@@H](CCN1CCC2(CC1)C[S+]([O-])c1ccccc12)c1ccc(Cl)c(Cl)c1)S(C)(=O)=O (stereo partly drawn)	850
CN(C)S(=O)(=O)N(C)C[C@@H](CCN1CCC2(CC1)C[S+]([O-])c1ccccc12)c1ccc(Cl)c(Cl)c1 (stereo partly drawn)	340
CN(C[C@@H](CCN1CCC2(CC1)C[S+]([O-])c1ccccc12)c1ccc(Cl)c(Cl)c1)S(=O)(=O)c1ccccc1Cl (stereo partly drawn)	80
CN(Cc1ccccc1)C[C@@H](CCN1CCC2(CC1)CS(=O)(=O)c1ccccc12)c1ccc(Cl)c(Cl)c1	1000
CN(C[C@@H](CCN1CCC2(CC1)CS(=O)(=O)c1ccccc12)c1ccc(Cl)c(Cl)c1)S(=O)(=O)c1cccc([N+](=O)[O-])c1	150
CN(C[C@@H](CCN1CCC2(CC1)C[S+]([O-])c1ccccc12)c1ccc(Cl)c(Cl)c1)S(=O)(=O)c1ccc2[nH]ccc2c1 (stereo partly drawn)	70
CN(C[C@@H](CCN1CCC2(CC1)C[S+]([O-])c1ccccc12)c1ccc(Cl)c(Cl)c1)S(=O)(=O)c1cccc(Cl)c1 (stereo partly drawn)	70
CN(C[C@@H](CCN1CCC2(CC1)C[S+]([O-])c1ccccc12)c1ccc(Cl)c(Cl)c1)S(=O)(=O)c1cnc2ccccc2c1 (stereo partly drawn)	120
CCN(C[C@@H](CCN1CCC2(CC1)C[S+]([O-])c1ccccc12)c1ccc(Cl)c(Cl)c1)S(=O)(=O)c1ccccc1 (stereo partly drawn)	130

target: T1, C-C chemokine receptor type 5; test: Binding affinity towards human CCR5 receptor in Chinese hamster ovary (CHO) cells using [125I]-MIP-1 alpha as radioligand at a concentration of 1000 nM; type: cell-based
Target sequence in this assay (P51681 whole entry, looked up): as the sequence (P51681 whole entry) above

Compound	inhibition [%]
CN(C[C@@H](CCN1CCC2(CC1)C[S+]([O-])c1ccccc12)c1ccc(Cl)c(Cl)c1)C(=O)OC(C)(C)C (stereo partly drawn)	35
CN(Cc1ccccc1)C[C@@H](CCN1CCC2(CC1)C[S+]([O-])c1ccccc12)c1ccc(Cl)c(Cl)c1 (stereo partly drawn)	40

target: T1, C-C chemokine receptor type 5; test: as §1; type: cell-based
Target sequence in this assay (P51681 whole entry, looked up): as the sequence (P51681 whole entry) above

Compound	inhibition [%]
CN(C[C@@H](CCN1CCC2(CC1)CSc1ccccc12)c1ccc(Cl)c(Cl)c1)C(=O)c1ccccc1	0
CN(C[C@@H](CCN1CCC2(CC1)C[S+]([O-])c1ccccc12)c1ccc(Cl)c(Cl)c1)C(=O)c1ccccc1 (stereo partly drawn)	22
CNC[C@@H](CCN1CCC2(CC1)C[S+]([O-])c1ccccc12)c1ccc(Cl)c(Cl)c1 (stereo partly drawn)	0
CN(C[C@@H](CCN1CCC2(CC1)C[S+]([O-])c1ccccc12)c1ccc(Cl)c(Cl)c1)S(=O)(=O)c1ccsc1 (stereo partly drawn)	20
CN(C[C@@H](CCN1CCC2(CC1)CS(=O)(=O)c1ccccc12)c1ccc(Cl)c(Cl)c1)C(=O)c1ccccc1	2

target: T1, C-C chemokine receptor type 5; test: Binding affinity towards human CCR5 receptor in Chinese hamster ovary (CHO) cells using [125I]-MIP-1 alpha as radioligand at a concentration of 10000 nM; type: cell-based
Target sequence in this assay (P51681 whole entry, looked up): as the sequence (P51681 whole entry) above

Compound	inhibition [%]
CN(C[C@@H](CCN1CCC2(CC1)C[S+]([O-])c1ccccc12)c1ccc(Cl)c(Cl)c1)C(=O)N(C)c1ccccc1 (stereo partly drawn)	73
CN(C[C@@H](CCN1CCC2(CC1)C[S+]([O-])c1ccccc12)c1ccc(Cl)c(Cl)c1)C(=O)Nc1ccccc1 (stereo partly drawn)	69
